In ChEMBL document CHEMBL1149643, “Synthesis of novel bicyclo[4.1.0]heptane and bicyclo[3.1.0]hexane derivatives as melanin-concentrating hormone receptor R1 antagonists” (Bioorg Med Chem Lett, 2007) one finds inhibition, Ki and inhibition in vivo data, which are given here for 17 molecules.

One may read the inhibition as the change of the read-out against control, counted positive when it falls. The term Ki denotes the equilibrium dissociation constant of an inhibitor or competing ligand from its target. As a reminder, the inhibition in vivo is the change of the read-out against control, counted positive when it falls. The low end stands for a response near the control, the high end for a response far below the control.

In one data set the target is hERG (KCNH2) (Homo sapiens, UniProt Q12809). The experiment in a line: Inhibition of hERG at 5 ug/ml by rubidium efflux assay. Type of data set: toxicity. (hERG is a cardiac potassium channel; its block is linked to QT prolongation.)
hERG (KCNH2), sequence (Q12809 whole entry): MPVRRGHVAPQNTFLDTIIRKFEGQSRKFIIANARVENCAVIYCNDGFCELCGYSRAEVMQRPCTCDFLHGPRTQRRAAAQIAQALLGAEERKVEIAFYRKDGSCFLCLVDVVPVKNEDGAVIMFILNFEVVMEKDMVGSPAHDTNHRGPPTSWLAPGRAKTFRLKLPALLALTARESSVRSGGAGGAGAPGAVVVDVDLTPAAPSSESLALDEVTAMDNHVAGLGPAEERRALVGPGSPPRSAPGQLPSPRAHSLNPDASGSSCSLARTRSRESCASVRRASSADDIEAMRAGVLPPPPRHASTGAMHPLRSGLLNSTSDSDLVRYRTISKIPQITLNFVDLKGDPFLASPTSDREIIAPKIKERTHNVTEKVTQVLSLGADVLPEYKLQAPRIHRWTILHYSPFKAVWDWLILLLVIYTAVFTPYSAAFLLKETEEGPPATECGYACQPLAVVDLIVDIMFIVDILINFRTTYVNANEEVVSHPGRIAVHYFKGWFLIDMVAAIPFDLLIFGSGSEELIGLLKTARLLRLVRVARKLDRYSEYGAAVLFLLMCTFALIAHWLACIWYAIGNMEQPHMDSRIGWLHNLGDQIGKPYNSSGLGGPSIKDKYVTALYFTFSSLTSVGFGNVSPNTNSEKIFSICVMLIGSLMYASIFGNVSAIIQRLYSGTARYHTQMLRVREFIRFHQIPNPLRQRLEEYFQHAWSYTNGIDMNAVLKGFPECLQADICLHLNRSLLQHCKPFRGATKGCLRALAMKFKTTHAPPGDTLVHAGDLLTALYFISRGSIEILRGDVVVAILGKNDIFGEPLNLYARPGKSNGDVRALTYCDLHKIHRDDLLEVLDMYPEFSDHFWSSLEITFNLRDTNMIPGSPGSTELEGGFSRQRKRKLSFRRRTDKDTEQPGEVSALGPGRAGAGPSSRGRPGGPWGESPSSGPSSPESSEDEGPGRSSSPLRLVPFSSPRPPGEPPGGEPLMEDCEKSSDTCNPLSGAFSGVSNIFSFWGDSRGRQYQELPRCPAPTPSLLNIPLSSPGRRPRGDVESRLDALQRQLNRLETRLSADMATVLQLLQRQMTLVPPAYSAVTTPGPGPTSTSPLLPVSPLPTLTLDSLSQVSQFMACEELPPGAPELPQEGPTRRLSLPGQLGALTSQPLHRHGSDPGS
Data set [1] concerns the target Melanin-concentrating hormone receptor 1 (Homo sapiens, UniProt Q99705). Description: Antagonist activity at MCHR1. In kind it is functional.
Another data set concerns Mus musculus. Description: Ex vivo receptor occupancy at MCHR1 in mouse at 30 mg/kg, po. In kind it is functional.

Melanin-concentrating hormone receptor 1, sequence (Q99705 whole entry): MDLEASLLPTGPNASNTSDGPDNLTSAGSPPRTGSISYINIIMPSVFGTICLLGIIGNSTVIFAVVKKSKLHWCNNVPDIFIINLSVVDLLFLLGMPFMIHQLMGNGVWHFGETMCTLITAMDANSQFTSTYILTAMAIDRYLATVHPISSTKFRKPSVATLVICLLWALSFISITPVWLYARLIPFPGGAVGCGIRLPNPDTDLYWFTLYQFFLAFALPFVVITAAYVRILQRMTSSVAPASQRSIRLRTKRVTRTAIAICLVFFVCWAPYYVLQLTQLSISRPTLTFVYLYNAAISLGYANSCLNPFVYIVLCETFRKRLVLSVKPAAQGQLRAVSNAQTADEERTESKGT

Take `N#Cc1cccc([C@]23CC[C@@H](N(CCN4CC[C@@H](O)C4)C(=O)Nc4ccc(F)c(Cl)c4)CC2C3)c1` (some centres not stated): the inhibition at 5 ug/ml against hERG (KCNH2) is 80%.
In data set [1], `N#Cc1cccc([C@]23CC[C@@H](N(CCCN4CC[C@@H](O)C4)C(=O)Nc4ccc(F)c(Cl)c4)[C@H]2C3)c1` showed a Ki of 22 nM. Besides, at hERG (KCNH2), the inhibition at 5 ug/ml is 86%.
The matching figures for `NCc1ncc([C@]23CC[C@@H](N(CCN4CCCC4)C(=O)Nc4ccc(F)c(C(F)(F)F)c4)C2C3)s1` (some centres not stated): 107 nM and 16%.
Take `NCc1ncc([C@]23CC[C@@H](N(CCN4CC[C@H](O)C4)C(=O)Nc4ccc(F)c(C(F)(F)F)c4)C2C3)s1` (some centres not stated): the Ki in data set [1] worked out at 99 nM. Further, the inhibition at 5 ug/ml at hERG (KCNH2) is 8%.
As for `NCc1ncc([C@]23CC[C@@H](N(CCCN4CC[C@H](O)C4)C(=O)Nc4ccc(F)c(C(F)(F)F)c4)C2C3)s1` (some centres not stated), in data set [1], the Ki was 45 nM. Further, the inhibition at 5 ug/ml against hERG (KCNH2) is -4%.
Taken in the same sequence, the figures for `NCc1ncc([C@]23CC[C@@H](N(CCCN4CC[C@@H](O)C4)C(=O)Nc4ccc(F)c(C(F)(F)F)c4)C2C3)s1` (some centres not stated) were 17 nM and -4%.
The matching figures for `C[C@@H]1CN(CCCN(C(=O)Nc2cc(Cl)nc(Cl)c2)[C@@H]2CC[C@]3(c4cnc(CN)s4)CC23)[C@@H](C)CN1` (some centres not stated): 13.1 nM and 3%.
Taken in the same sequence, the figures for `NCc1ncc([C@]23CC[C@@H](N(CCCN4CC5CC4CN5)C(=O)Nc4ccc(F)c(C(F)(F)F)c4)C2C3)s1` (some centres not stated) were 73 nM and 14%.
In turn, `NCc1ncc([C@]23CC[C@H](N(CCCN4CC[C@@H](O)C4)C(=O)Nc4ccc(F)c(C(F)(F)F)c4)[C@H]2C3)s1` came in with a Ki in data set [1] of 6.6 nM. Further, the inhibition at 5 ug/ml at hERG (KCNH2) is 8%.
For `C[C@@H]1CN(CCCN(C(=O)Nc2cc(Cl)nc(Cl)c2)[C@H]2CC[C@]3(c4cnc(CN)s4)C[C@H]23)[C@@H](C)CN1`, in the data set with Mus musculus, 30 mg/kg produced 16% inhibition in vivo. The same molecule returned a Ki in data set [1] of 6.1 nM. In addition, the inhibition at 5 ug/ml against hERG (KCNH2) is -12%.
In the case of `NCc1ncc(C2=CCC(N(CCN3CCCC3)C(=O)Nc3ccc(F)c(Cl)c3)CC2)s1` (configuration not stated), 30 mg/kg produced 88% inhibition in vivo in the data set with Mus musculus. In addition, at hERG (KCNH2), the inhibition at 5 ug/ml came to 10%.
`C[C@@H]1CN(CCCN(C(=O)Nc2cc(Cl)nc(Cl)c2)[C@H]2CC[C@@]3(c4cnc(CN)s4)C[C@@H]23)[C@@H](C)CN1` yielded an inhibition in vivo at 30 mg/kg with Mus musculus of 20%. In data set [1], this molecule yielded a Ki of 117 nM. For the same molecule, the inhibition at 5 ug/ml against hERG (KCNH2) is -13%.
`C[C@@H]1CN[C@@H](C)CN1CCCN(C(=O)Nc1cc(Cl)nc(Cl)c1)[C@H]1CC[C@]2(c3cnc(CN)s3)C[C@H]12`: in the data set with Mus musculus, the inhibition in vivo at 30 mg/kg came to 39%. In data set [1], this molecule yielded a Ki of 4 nM. Moreover, the inhibition at 5 ug/ml against hERG (KCNH2) was found to be 22%.
In turn, `C[C@@H]1CN(CCCN(C(=O)Nc2ccc(F)c(C(F)(F)F)c2)[C@@H]2CC[C@]3(c4cnc(CN)s4)CC23)[C@@H](C)CN1` (some centres not stated) had a Ki in data set [1] of 19 nM. For the same molecule, the inhibition at 5 ug/ml against hERG (KCNH2) was -8%.
On to `NCc1cnc([C@]23CC[C@@H](N(CCN4CCCC4)C(=O)Nc4ccc(F)c(C(F)(F)F)c4)CC2C3)s1` (some centres not stated), for which, in data set [1], the Ki is 431 nM. Also, the inhibition at 5 ug/ml against hERG (KCNH2) was found to be 19%.
The matching figures for `NCc1ncc([C@@]23CC[C@H](N(CCCN4CC[C@@H](O)C4)C(=O)Nc4ccc(F)c(C(F)(F)F)c4)[C@@H]2C3)s1`: 167 nM and 6%.
In turn, `C[C@@H]1CN[C@@H](C)CN1CCCN(C(=O)Nc1cc(Cl)nc(Cl)c1)[C@H]1CC[C@@]2(c3cnc(CN)s3)C[C@@H]12` came in with an inhibition in vivo at 30 mg/kg with Mus musculus of 26%. Besides, in data set [1], the Ki was 171 nM. The inhibition at 5 ug/ml at hERG (KCNH2) worked out at 17%.
